According to patent US20220313620A1, “COMPOSITION FOR PREVENTING AND TREATING TAUOPATHIES” (SERVICIO ANDALUZ DE SALUD, priority 2019, published 2022):

System: Pyruvate Kinase Liver/RBC (Pklr)
Assay: Liver pyruvate kinase gene expression (qPCR) after acute oral gavage
Format: in vivo
Conditions: oral 100 mg/kg, adult male Wistar rats, FIG. 2D
Experimental: After 18 hours of fasting, D-Pinitol dissolved in water was administered acutely by gavage (100 mg/kg in a first study, and 500 mg/kg in a subsequent study). After administration, the animals were sacrificed in groups at different times (being time 0 the administration of D-Pinitol). For the first study (100 mg/kg), groups of animals were sacrificed at times: 10, 20, 30, 60, 120, 240 and 360 minutes after administration; for the second study (500 mg/kg), animals were sacrificed at times: 60, 120 and 240 minutes after administration. As a control group, a group was administered only with water (by gavage). […]
Total RNA was extracted from tissue portions of liver (100-300 mg) using the Trizol® method according to the manufacturer's instructions (GIBCO BRL Life Technologies). […] Total RNA was quantified using a spectrophotometer (Nanodrop 1000 Spectrophotometer, Thermo Scientific) to ensure A260/280 ratios of 1.8 to 2.0. […]
Real-time qPCR was performed following the criteria of the MIQE guidelines (Bustin, S. A. et al. The MIQE guidelines: minimum information for publication of quantitative real-time PCR experiments. Clin Chem. 55,611-622 (2009)). […] For all reference and target gene studies, two independent biologic samples of each experimental condition were evaluated in technical duplicates. […]

Question: With `COC1[C@@H](O)[C@@H](O)C(O)[C@H](O)[C@H]1O` (stereo partly drawn) [DPIN, (1S,2S,4S,5R)-6-methoxycyclohexane-1,2,3,4,5-pentol] as the compound, how does the “expression of Pyruvate Kinase” value read?
Answer: Inhibition
